Laboratory results from PubChem BioAssay (NCI).
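96-well plates; 48 h exposure; 5 concentrations. Endpoints by linear interpolation between flanking doses. Not reached: highest tested concentration assigned. TGI marks complete inhibition of growth.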

Legend:
Test in all cases: DTP human tumour cell line panel, 48 h
A498 renal = tested on: A498 renal
ACHN renal = tested on: ACHN renal
HCC-2998 colon = tested on: HCC-2998 colon
HCT-116 colon = tested on: HCT-116 colon
HOP-62 NSCLC = tested on: HOP-62 NSCLC
MOLT-4 leukemia = tested on: MOLT-4 leukemia
SR leukemia = tested on: SR leukemia
U251 CNS = tested on: U251 CNS
BT-549 breast = tested on: BT-549 breast
SN12C renal = tested on: SN12C renal

CC(O[Si](c1ccccc1)(c1ccccc1)C(C)(C)C)[C@H](NC(=O)OC(C)(C)C)C(=O)O (some centres undefined)
TGI (A498 renal): > 100 µM
TGI (ACHN renal): > 100 µM
TGI (HCC-2998 colon): > 100 µM
TGI (HCT-116 colon): > 100 µM
TGI (HOP-62 NSCLC): > 100 µM
TGI (MOLT-4 leukemia): 46.1 µM
TGI (SR leukemia): 90.2 µM
TGI (U251 CNS): > 100 µM

Cc1c(-c2ccccc2)c(C#N)c2nnn(-c3cccc(Cl)c3)c(=O)n12
TGI (A498 renal): 98.5 µM
TGI (ACHN renal): > 100 µM
TGI (BT-549 breast): > 100 µM
TGI (HCC-2998 colon): > 100 µM
TGI (HCT-116 colon): > 100 µM
TGI (HOP-62 NSCLC): > 100 µM
TGI (SN12C renal): > 100 µM
TGI (SR leukemia): > 100 µM
TGI (U251 CNS): > 100 µM

Oc1cc(CN2COc3ccccc32)c(O)cc1CNC1CCCCC1
TGI (A498 renal): 49.9 µM
TGI (ACHN renal): 78.5 µM
TGI (BT-549 breast): 90.9 µM
TGI (HCT-116 colon): 35.3 µM
TGI (HOP-62 NSCLC): > 100 µM
TGI (MOLT-4 leukemia): 39.3 µM
TGI (SN12C renal): > 100 µM
TGI (SR leukemia): 49.7 µM
TGI (U251 CNS): 32.5 µM

CC(=O)N/C(=C\c1ccc(/C=C(\NC(C)=O)C2=NC3C(=O)c4ccccc4C(=O)C3N2)cc1)C1=NC2C(=O)c3ccccc3C(=O)C2N1 (centres undefined)
TGI (A498 renal): > 100 µM
TGI (ACHN renal): > 100 µM
TGI (HCT-116 colon): > 100 µM
TGI (MOLT-4 leukemia): 26.6 µM
TGI (SN12C renal): > 100 µM
TGI (U251 CNS): > 100 µM

O=C(O)c1ccc(Nc2nc3cc(C(F)(F)F)ccc3nc2-c2ccccc2)cc1
TGI (ACHN renal): > 100 µM
TGI (BT-549 breast): > 100 µM
TGI (HCC-2998 colon): 34.4 µM
TGI (HCT-116 colon): 84.5 µM
TGI (HOP-62 NSCLC): 43.1 µM
TGI (MOLT-4 leukemia): > 100 µM
TGI (SN12C renal): 97.6 µM
TGI (SR leukemia): > 100 µM
TGI (U251 CNS): 34.2 µM

O=C1NC(S(=O)(=O)O)=NNC12c1ccccc1-c1ccccc12
TGI (ACHN renal): > 10 µM
TGI (BT-549 breast): > 10 µM
TGI (HCC-2998 colon): > 10 µM
TGI (HCT-116 colon): > 10 µM
TGI (HOP-62 NSCLC): > 10 µM
TGI (MOLT-4 leukemia): > 10 µM
TGI (SN12C renal): > 10 µM
TGI (SR leukemia): > 10 µM
